Data from ChEMBL document CHEMBL4507268 (2021).

Legend:
Settings in all cases: Compound concentration 1.0 uM
[1] = molecular target: Mitogen-activated protein kinase 1 (Homo sapiens) (UniProt P28482)
[2] = molecular target: T1, Dual specificity mitogen-activated protein kinase kinase 7 (Homo sapiens) (UniProt O14733)
T1 sequence (whole entry): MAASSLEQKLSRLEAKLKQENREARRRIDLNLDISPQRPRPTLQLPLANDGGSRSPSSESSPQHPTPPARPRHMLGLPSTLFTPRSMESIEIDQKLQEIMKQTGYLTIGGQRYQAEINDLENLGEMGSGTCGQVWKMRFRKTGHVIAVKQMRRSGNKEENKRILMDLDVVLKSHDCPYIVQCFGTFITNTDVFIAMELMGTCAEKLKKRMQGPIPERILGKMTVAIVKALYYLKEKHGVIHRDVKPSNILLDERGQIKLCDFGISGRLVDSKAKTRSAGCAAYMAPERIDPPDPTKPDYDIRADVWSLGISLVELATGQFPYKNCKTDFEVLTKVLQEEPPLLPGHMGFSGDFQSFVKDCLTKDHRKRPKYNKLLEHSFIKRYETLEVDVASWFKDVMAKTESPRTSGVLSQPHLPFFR

[3] = molecular target: Dual specificity mitogen-activated protein kinase kinase 2 (Homo sapiens) (UniProt P36507)
Dual specificity mitogen-activated protein kinase kinase 2 (Homo sapiens), sequence (P36507 whole entry): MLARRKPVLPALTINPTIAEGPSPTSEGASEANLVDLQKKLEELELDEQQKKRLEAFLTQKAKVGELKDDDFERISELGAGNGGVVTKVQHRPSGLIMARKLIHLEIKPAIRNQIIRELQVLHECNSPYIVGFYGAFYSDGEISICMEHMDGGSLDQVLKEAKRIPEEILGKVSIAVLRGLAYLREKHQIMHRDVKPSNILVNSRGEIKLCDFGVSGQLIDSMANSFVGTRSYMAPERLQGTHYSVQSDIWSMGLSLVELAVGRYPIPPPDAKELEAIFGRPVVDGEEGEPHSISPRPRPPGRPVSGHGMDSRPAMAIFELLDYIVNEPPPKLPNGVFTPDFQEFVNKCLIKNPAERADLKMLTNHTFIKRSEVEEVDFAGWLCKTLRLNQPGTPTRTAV

[4] = molecular target: T2, Dual specificity mitogen-activated protein kinase kinase 3 (Homo sapiens) (UniProt P46734)
T2 sequence (whole entry): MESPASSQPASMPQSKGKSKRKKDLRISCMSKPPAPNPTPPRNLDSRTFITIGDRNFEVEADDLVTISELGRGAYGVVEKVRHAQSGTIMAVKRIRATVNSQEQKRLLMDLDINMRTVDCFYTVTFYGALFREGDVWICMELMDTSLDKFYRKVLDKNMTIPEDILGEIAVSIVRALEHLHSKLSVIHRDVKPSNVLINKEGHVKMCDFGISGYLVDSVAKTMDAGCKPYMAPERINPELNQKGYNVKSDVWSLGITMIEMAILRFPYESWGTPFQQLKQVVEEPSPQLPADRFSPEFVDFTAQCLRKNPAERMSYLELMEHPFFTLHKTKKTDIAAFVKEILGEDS

[5] = molecular target: Serine/threonine-protein kinase WNK3 (Homo sapiens) (UniProt Q9BYP7)
Serine/threonine-protein kinase WNK3 (Homo sapiens), sequence (Q9BYP7 whole entry): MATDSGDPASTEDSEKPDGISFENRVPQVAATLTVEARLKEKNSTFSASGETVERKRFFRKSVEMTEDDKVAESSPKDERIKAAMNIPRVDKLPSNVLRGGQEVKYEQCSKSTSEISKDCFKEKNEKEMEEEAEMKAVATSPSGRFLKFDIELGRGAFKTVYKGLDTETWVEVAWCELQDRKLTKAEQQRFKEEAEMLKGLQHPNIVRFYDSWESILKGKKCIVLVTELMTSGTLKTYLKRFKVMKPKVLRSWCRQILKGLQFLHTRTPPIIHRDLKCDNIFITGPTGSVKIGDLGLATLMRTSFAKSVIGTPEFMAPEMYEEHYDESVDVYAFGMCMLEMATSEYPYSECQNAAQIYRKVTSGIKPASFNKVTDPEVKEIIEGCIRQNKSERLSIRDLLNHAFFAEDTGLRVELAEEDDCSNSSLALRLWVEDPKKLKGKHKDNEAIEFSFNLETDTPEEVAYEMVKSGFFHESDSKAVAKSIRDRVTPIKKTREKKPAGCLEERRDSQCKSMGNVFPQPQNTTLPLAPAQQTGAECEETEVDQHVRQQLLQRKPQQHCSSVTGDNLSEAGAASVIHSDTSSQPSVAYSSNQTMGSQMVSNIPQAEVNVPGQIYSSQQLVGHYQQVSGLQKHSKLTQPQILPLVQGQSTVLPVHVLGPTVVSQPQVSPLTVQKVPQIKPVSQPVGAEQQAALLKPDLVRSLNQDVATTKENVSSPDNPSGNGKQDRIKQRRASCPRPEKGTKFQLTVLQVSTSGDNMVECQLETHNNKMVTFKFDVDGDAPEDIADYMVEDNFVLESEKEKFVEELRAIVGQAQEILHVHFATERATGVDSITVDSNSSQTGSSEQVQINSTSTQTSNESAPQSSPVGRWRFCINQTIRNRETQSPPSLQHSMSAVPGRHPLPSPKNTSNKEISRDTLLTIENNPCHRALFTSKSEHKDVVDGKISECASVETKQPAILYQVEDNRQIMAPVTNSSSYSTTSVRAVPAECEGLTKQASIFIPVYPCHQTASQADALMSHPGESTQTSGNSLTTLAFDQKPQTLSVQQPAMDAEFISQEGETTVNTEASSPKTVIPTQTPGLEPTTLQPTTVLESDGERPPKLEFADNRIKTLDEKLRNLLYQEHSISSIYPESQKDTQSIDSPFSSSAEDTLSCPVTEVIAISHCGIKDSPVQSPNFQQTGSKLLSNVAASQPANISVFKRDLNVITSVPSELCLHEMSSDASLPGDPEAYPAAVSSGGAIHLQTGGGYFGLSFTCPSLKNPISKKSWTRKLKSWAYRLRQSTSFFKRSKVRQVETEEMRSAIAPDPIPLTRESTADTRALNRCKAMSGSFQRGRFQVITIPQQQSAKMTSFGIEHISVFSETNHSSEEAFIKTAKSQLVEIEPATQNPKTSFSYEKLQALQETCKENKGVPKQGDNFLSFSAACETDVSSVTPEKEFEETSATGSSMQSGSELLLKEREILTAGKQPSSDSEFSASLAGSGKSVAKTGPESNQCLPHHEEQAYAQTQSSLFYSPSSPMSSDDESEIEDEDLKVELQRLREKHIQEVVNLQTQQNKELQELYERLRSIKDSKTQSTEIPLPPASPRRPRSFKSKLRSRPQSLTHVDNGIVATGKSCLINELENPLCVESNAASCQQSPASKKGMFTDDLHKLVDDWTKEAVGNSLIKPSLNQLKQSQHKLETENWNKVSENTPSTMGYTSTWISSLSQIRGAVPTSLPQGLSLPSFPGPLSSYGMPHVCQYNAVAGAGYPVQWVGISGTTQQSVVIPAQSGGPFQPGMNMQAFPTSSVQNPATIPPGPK

[6] = molecular target: T3, Mitogen-activated protein kinase kinase kinase kinase 3 (Homo sapiens) (UniProt Q8IVH8)
T3 sequence (whole entry): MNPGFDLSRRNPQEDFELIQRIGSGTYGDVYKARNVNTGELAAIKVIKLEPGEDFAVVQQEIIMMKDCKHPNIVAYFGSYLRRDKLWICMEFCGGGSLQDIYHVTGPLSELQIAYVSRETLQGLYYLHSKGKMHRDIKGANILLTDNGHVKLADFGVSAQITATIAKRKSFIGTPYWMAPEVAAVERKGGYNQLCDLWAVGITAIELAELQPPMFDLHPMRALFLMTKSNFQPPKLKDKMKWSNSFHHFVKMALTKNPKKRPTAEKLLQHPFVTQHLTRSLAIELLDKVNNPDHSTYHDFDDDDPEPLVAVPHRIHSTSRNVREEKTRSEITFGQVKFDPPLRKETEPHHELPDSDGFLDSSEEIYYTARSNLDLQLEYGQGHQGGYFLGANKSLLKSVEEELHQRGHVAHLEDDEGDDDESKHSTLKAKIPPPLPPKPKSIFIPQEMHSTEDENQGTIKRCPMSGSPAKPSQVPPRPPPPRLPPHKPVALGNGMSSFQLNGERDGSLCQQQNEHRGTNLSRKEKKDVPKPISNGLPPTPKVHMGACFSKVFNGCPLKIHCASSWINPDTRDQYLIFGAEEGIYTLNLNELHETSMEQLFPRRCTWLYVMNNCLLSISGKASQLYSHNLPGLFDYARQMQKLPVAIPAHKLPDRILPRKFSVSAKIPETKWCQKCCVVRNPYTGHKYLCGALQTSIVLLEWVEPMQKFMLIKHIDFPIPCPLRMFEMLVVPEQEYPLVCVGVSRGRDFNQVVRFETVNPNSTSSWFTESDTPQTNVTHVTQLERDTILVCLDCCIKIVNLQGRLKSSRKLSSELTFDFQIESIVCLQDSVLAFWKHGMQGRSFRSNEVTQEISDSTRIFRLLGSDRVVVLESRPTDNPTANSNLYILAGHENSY

[7] = molecular target: Tyrosine-protein kinase SYK (Homo sapiens) (UniProt P43405)
[8] = molecular target: Ribosomal protein S6 kinase alpha-6 (Homo sapiens) (UniProt Q9UK32)
Ribosomal protein S6 kinase alpha-6 (Homo sapiens), sequence (Q9UK32 whole entry): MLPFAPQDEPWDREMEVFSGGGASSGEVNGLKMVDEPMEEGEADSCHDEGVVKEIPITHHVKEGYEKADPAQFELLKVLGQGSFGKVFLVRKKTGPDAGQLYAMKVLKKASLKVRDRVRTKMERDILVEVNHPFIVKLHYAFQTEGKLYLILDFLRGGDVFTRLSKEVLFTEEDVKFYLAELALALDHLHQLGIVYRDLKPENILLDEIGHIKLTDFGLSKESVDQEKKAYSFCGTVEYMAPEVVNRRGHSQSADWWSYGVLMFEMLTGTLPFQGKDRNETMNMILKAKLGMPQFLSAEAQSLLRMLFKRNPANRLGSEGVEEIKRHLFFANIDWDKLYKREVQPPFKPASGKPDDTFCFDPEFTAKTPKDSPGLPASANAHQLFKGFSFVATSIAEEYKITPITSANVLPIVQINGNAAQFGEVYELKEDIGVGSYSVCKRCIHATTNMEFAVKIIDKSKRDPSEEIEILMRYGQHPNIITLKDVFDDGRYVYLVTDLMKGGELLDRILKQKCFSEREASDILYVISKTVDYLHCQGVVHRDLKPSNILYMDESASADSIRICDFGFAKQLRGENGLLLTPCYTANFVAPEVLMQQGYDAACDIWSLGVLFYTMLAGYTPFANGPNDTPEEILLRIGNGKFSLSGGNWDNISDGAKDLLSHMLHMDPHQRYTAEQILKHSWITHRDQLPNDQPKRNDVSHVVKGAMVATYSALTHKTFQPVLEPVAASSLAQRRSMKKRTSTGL

[9] = molecular target: T4, Serine/threonine-protein kinase MAK (Homo sapiens) (UniProt P20794)
T4 sequence (whole entry): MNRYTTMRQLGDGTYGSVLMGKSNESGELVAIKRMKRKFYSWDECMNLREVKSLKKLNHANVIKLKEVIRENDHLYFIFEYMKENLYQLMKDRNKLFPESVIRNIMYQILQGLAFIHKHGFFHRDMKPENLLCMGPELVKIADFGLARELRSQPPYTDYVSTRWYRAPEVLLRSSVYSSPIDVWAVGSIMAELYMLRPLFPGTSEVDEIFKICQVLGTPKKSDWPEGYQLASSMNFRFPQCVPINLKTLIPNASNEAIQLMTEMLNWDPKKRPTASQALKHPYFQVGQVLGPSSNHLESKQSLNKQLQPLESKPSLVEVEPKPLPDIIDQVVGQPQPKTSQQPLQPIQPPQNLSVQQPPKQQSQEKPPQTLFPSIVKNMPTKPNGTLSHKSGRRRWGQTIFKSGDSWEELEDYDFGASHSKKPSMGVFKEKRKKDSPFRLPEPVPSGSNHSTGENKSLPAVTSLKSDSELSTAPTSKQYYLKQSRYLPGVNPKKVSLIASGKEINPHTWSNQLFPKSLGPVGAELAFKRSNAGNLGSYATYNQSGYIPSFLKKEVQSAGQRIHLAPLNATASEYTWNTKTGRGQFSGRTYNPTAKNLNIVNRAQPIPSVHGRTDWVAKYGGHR

Measured: % residual kinase activity

Mitogen-activated protein kinase 1 (Homo sapiens), sequence (P28482 whole entry): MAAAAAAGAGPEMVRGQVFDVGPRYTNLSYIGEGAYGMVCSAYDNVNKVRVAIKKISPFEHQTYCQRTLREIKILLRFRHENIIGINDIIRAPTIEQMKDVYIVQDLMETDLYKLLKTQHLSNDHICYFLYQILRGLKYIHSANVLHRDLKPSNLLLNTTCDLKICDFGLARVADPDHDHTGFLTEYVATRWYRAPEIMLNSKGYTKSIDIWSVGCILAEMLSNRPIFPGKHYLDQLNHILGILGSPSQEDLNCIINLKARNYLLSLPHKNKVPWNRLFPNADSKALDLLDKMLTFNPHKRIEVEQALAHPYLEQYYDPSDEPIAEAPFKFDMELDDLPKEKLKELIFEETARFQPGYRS

CN1CCN(c2cnc3c(C4CCN(C(=O)c5ccc(OC(F)(F)F)cc5N)CC4)ncnc3c2)CC1 [BAY-885]
inactive: [1] 116% | [2] 106% | [3] 103% | [4] 92% | [5] 107% | [6] 102% | [7] 87% | [8] 103% | [9] 125%
